Data published in patent US6914045B2, “Glycopeptide antibiotics” (Wyeth Holdings Corporation, priority 2001, dated 2005).
≈ marks a conversion by molar mass, not a printed value.

Experiments:
Test in all cases: in vitro antibacterial evaluation, MIC by broth dilution
Format in all cases: cell-based
Enterococcus sp. = conditions: broth dilution, 18 hours at 35° C.
Method in brief: (§1)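 Inoculum 5×10^5 CFU/mL; concentrations 64 to 0.06 μg/mL; MIC defined as lowest inhibitory level. Conducted by broth dilution under NCCLS guidelines.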

Staphylococcus sp. = conditions: broth dilution, 18 hours at 35° C.; for MIC Staphylococcus aureus (GC 1131): strain GC 1131
Method in brief: as §1

Streptococcus sp. = conditions: broth dilution, 18 hours at 35° C.
Method in brief: as §1

Escherichia coli = conditions: 18 hours at 35° C.

MIC Enterococcus avium (GC 4558) (Enterococcus sp.): 16 µg/mL (≈ 11.2 µM)
MIC Enterococcus faecalis (ATCC 29212) (Enterococcus sp.): 32 µg/mL (≈ 22.4 µM)
MIC Enterococcus faecalis (GC 2242) (Enterococcus sp.): 32 µg/mL (≈ 22.4 µM)
MIC Enterococcus faecalis (GC 2691) (Enterococcus sp.): 32 µg/mL (≈ 22.4 µM)
MIC Enterococcus faecalis (GC 3059) (Enterococcus sp.): 32 µg/mL (≈ 22.4 µM)
MIC Enterococcus faecalis (GC 4552) (Enterococcus sp.): 32 µg/mL (≈ 22.4 µM)
MIC Enterococcus faecalis (GC 4553) (Enterococcus sp.): 32 µg/mL (≈ 22.4 µM)
MIC Enterococcus faecalis (GC 4554) (Enterococcus sp.): 32 µg/mL (≈ 22.4 µM)
MIC Enterococcus faecalis (GC 6189) (Enterococcus sp.): 32 µg/mL (≈ 22.4 µM)
MIC Enterococcus faecium (GC 2243) (Enterococcus sp.): 32 µg/mL (≈ 22.4 µM)
MIC Enterococcus faecium (GC 4556) (Enterococcus sp.): 32 µg/mL (≈ 22.4 µM)
MIC Enterococcus faecium (GC 4557) (Enterococcus sp.): 8 µg/mL (≈ 5.59 µM)
MIC Enterococcus faecalis (ATCC 29212) (Enterococcus sp.; inoculum 5×10^5 CFU/mL, strain ATCC 29212): 32 µg/mL (≈ 22.4 µM)
MIC Enterococcus faecalis (GC 2242) (Enterococcus sp.; inoculum 5×10^5 CFU/mL, strain GC 2242): 32 µg/mL (≈ 22.4 µM)
MIC Enterococcus faecium (GC 2243) (Enterococcus sp.; inoculum 5×10^5 CFU/mL, strain GC 2243): 32 µg/mL (≈ 22.4 µM)
MIC Enterococcus faecalis (GC 2691) (Enterococcus sp.; inoculum 5×10^5 CFU/mL, strain GC 2691): 32 µg/mL (≈ 22.4 µM)
MIC Enterococcus faecalis (GC 3059) (Enterococcus sp.; inoculum 5×10^5 CFU/mL, strain GC 3059): 32 µg/mL (≈ 22.4 µM)
MIC Enterococcus faecalis (GC 4552) (Enterococcus sp.; inoculum 5×10^5 CFU/mL, strain GC 4552): 32 µg/mL (≈ 22.4 µM)
MIC Enterococcus faecalis (GC 4553) (Enterococcus sp.; inoculum 5×10^5 CFU/mL, strain GC 4553): 32 µg/mL (≈ 22.4 µM)
MIC Enterococcus faecalis (GC 4554) (Enterococcus sp.; inoculum 5×10^5 CFU/mL, strain GC 4554): 32 µg/mL (≈ 22.4 µM)
MIC Enterococcus faecium (GC 4556) (Enterococcus sp.; inoculum 5×10^5 CFU/mL, strain GC 4556): 32 µg/mL (≈ 22.4 µM)
MIC Enterococcus faecium (GC 4557) (Enterococcus sp.; inoculum 5×10^5 CFU/mL, strain GC 4557): 8 µg/mL (≈ 5.59 µM)
MIC Enterococcus avium (GC 4558) (Enterococcus sp.; inoculum 5×10^5 CFU/mL, strain GC 4558): 16 µg/mL (≈ 11.2 µM)
MIC Enterococcus faecalis (GC 6189) (Enterococcus sp.; inoculum 5×10^5 CFU/mL, strain GC 6189): 32 µg/mL (≈ 22.4 µM)
MIC Staphylococcus aureus (GC 1131) (Staphylococcus sp.; inoculum 5×10^5 CFU/mL): 16 µg/mL (≈ 11.2 µM)
MIC Staphylococcus aureus (ATCC 29213) (Staphylococcus sp.; strain ATCC 29213): 16 µg/mL (≈ 11.2 µM)
MIC Staphylococcus aureus (GC 1131) (Staphylococcus sp.): 16 µg/mL (≈ 11.2 µM)
MIC Staphylococcus aureus (GC 3051) (Staphylococcus sp.; strain GC 3051): 16 µg/mL (≈ 11.2 µM)
MIC Staphylococcus aureus (GC 3053) (Staphylococcus sp.; strain GC 3053): 16 µg/mL (≈ 11.2 µM)
MIC Staphylococcus aureus (GC 4541) (Staphylococcus sp.; strain GC 4541): 8 µg/mL (≈ 5.59 µM)
MIC Staphylococcus aureus (GC 4542) (Staphylococcus sp.; strain GC 4542): 4 µg/mL (≈ 2.79 µM)
MIC Staphylococcus aureus-SMITH (GC 4543) (Staphylococcus sp.; strain GC 4543): 4 µg/mL (≈ 2.79 µM)
MIC Staphylococcus aureus (GC 4544) (Staphylococcus sp.; strain GC 4544): 16 µg/mL (≈ 11.2 µM)
MIC Staphylococcus aureus (GC 4545) (Staphylococcus sp.; strain GC 4545): 16 µg/mL (≈ 11.2 µM)
MIC Coagulase Negative Staphylococcus (GC 4547) (Staphylococcus sp.; strain GC 4547): 8 µg/mL (≈ 5.59 µM)
MIC Coagulase Negative Staphylococcus (GC 4548) (Staphylococcus sp.; strain GC 4548): 8 µg/mL (≈ 5.59 µM)
MIC Coagulase Negative Staphylococcus (GC 4549) (Staphylococcus sp.; strain GC 4549): 8 µg/mL (≈ 5.59 µM)
MIC Coagulase Negative Staphylococcus (GC 4551) (Staphylococcus sp.; strain GC 4551): 16 µg/mL (≈ 11.2 µM)
MIC Coagulase Negative Staphylococcus (GC 6257) (Staphylococcus sp.; strain GC 6257): 8 µg/mL (≈ 5.59 µM)
MIC Streptococcus agalactiae (GC 4564) (Streptococcus sp.): 16 µg/mL (≈ 11.2 µM)
MIC Streptococcus pneumoniae (ATCC 6301) (Streptococcus sp.): 8 µg/mL (≈ 5.59 µM)
MIC Streptococcus pneumoniae (GC 1894) (Streptococcus sp.): 4 µg/mL (≈ 2.79 µM)
MIC Streptococcus pneumoniae (GC 4565) (Streptococcus sp.): 8 µg/mL (≈ 5.59 µM)
MIC Streptococcus pyogenes (GC 4563) (Streptococcus sp.): 16 µg/mL (≈ 11.2 µM)
MIC Streptococcus pneumoniae (ATCC 6301) (Streptococcus sp.; inoculum 5×10^5 CFU/mL, strain ATCC 6301): 8 µg/mL (≈ 5.59 µM)
MIC Streptococcus pneumoniae (GC 1894) (Streptococcus sp.; inoculum 5×10^5 CFU/mL, strain GC 1894): 4 µg/mL (≈ 2.79 µM)
MIC Streptococcus pyogenes (GC 4563) (Streptococcus sp.; inoculum 5×10^5 CFU/mL, strain GC 4563): 16 µg/mL (≈ 11.2 µM)
MIC Streptococcus agalactiae (GC 4564) (Streptococcus sp.; inoculum 5×10^5 CFU/mL, strain GC 4564): 16 µg/mL (≈ 11.2 µM)
MIC Streptococcus pneumoniae (GC 4565) (Streptococcus sp.; inoculum 5×10^5 CFU/mL, strain GC 4565): 8 µg/mL (≈ 5.59 µM)
MIC Escherichia coli (ATCC 25922) (Escherichia coli): >64 µg/mL
MIC Escherichia coli (GC 4559) (Escherichia coli): >64 µg/mL
MIC Escherichia coli (GC 4560) (Escherichia coli): 16 µg/mL (≈ 11.2 µM)
SMILES: COc1ccc2cc(C3OCC4OC(OC5C(CO)OC(Oc6ccc(CC7NC(=O)C(C(C)c8ccccc8)NC(=O)CNC(=O)C(CO)NC(=O)C(CC8CNC(=N)N8C8OC(CO)C(O)C(O)C8O)NC(=O)C(CC8CNC(=N)N8)NC7=O)cc6)C(O)C5O)C(O)C(O)C4O3)ccc2c1 (centres unmarked) [Example 190]
MIC Staphylococcus haemolyticus (GC 4546) (Staphylococcus sp.; strain GC 4546): 8 µg/mL (≈ 5.59 µM)
